Results reported in PubChem BioAssay AID1259407 (Chemical Carcinogenesis Research Information System (CCRIS), 2018).
Active and inactive are the calls of the source. The rule behind the calls is not given here.

Tested on: CCRIS mutagenicity, Ames/micronucleus/aberration tests
Assay: CCRIS mutagenicity studies
[1] = Test System: AMES SALMONELLA TYPHIMURIUM, Strain/Indicator: TA98, Metabolic Activation: NONE, Method: STANDARD PLATE
[2] = Test System: AMES SALMONELLA TYPHIMURIUM, Strain/Indicator: TA98, Metabolic Activation: RAT, LIVER, S-9, AROCLOR 1254, Method: STANDARD PLATE
[3] = Test System: AMES SALMONELLA TYPHIMURIUM, Strain/Indicator: TA100, Metabolic Activation: NONE, Method: STANDARD PLATE
[4] = Test System: AMES SALMONELLA TYPHIMURIUM, Strain/Indicator: TA100, Metabolic Activation: RAT, LIVER, S-9, AROCLOR 1254, Method: STANDARD PLATE
[5] = Test System: AMES SALMONELLA TYPHIMURIUM, Strain/Indicator: TA97, Metabolic Activation: NONE, Method: STANDARD PLATE
[6] = Test System: AMES SALMONELLA TYPHIMURIUM, Strain/Indicator: TA97, Metabolic Activation: RAT, LIVER, S-9, AROCLOR 1254, Method: STANDARD PLATE

SMILES: COc1cc(O)c2c(c1)C(=O)c1cc(C)cc(O)c1C2=O
- mutagenic call [1]: inactive; negative
- mutagenic call [2]: inactive; negative
- mutagenic call [3]: inactive; negative
- mutagenic call [4]: inactive; negative
- mutagenic call (Test System: AMES SALMONELLA TYPHIMURIUM, Strain/Indicator: TA102, Metabolic Activation: RAT, LIVER, S-9, AROCLOR 1254, Method: STANDARD PLATE): inactive; negative
- mutagenic call (Test System: AMES SALMONELLA TYPHIMURIUM, Strain/Indicator: TA1537, Metabolic Activation: NONE, Method: STANDARD PLATE): inactive; negative
- mutagenic call (Test System: AMES SALMONELLA TYPHIMURIUM, Strain/Indicator: TA1537, Metabolic Activation: RAT, LIVER, S-9, AROCLOR 1254, Method: STANDARD PLATE): active; positive
- mutagenic call (Test System: AMES SALMONELLA TYPHIMURIUM, Strain/Indicator: TA1537, Metabolic Activation: S-9, Method: STANDARD PLATE): active; positive

SMILES: CCCOc1ccccc1C(=O)NOC(C)=O
- mutagenic call [3]: active; positive
- mutagenic call (Test System: AMES SALMONELLA TYPHIMURIUM, Strain/Indicator: TA100, Metabolic Activation: RAT, S-9, AROCLOR, Method: STANDARD PLATE): active; positive

SMILES: Nc1ccc2nc3ccccn3c2n1
- mutagenic call [5]: inactive; negative
- mutagenic call [6]: active; positive
- mutagenic call (Test System: AMES SALMONELLA TYPHIMURIUM, Strain/Indicator: TA98, Metabolic Activation: MONKEY, LIVER, S-9, Method: PREINCUBATION): active; positive
- mutagenic call (Test System: AMES SALMONELLA TYPHIMURIUM, Strain/Indicator: TA98, Metabolic Activation: MOUSE, LIVER, MICROSOMES, TCDD, Method: STANDARD PLATE): active; positive
- mutagenic call (Test System: AMES SALMONELLA TYPHIMURIUM, Strain/Indicator: TA98, Metabolic Activation: MOUSE, LIVER, MICROSOMES, Method: STANDARD PLATE): inactive; negative
- mutagenic call [1]: inactive; negative
- mutagenic call (Test System: AMES SALMONELLA TYPHIMURIUM, Strain/Indicator: TA98, Metabolic Activation: RAT, LIVER, CYTOSOL, AROCLOR 1254, Method: STANDARD PLATE): inactive; negative
- mutagenic call (Test System: AMES SALMONELLA TYPHIMURIUM, Strain/Indicator: TA98, Metabolic Activation: RAT, LIVER, MICROSOMES, AROCLOR 1254, Method: STANDARD PLATE): inactive; negative
- mutagenic call (Test System: AMES SALMONELLA TYPHIMURIUM, Strain/Indicator: TA98, Metabolic Activation: RAT, LIVER, S-9, AROCLOR 1254, Method: PREINCUBATION): active; positive
- mutagenic call [2]: active; positive
- mutagenic call [3]: inactive; negative
- mutagenic call (Test System: AMES SALMONELLA TYPHIMURIUM, Strain/Indicator: TA100, Metabolic Activation: RAT, LIVER, S-9, AROCLOR 1254, Method: PREINCUBATION): active; positive
- mutagenic call [4]: active; positive
- mutagenic call (Test System: AMES SALMONELLA TYPHIMURIUM, Strain/Indicator: TA100, Metabolic Activation: RAT, LIVER, S-9, N-BENZYLIMIDAZOLE, Method: PREINCUBATION): active; positive
- mutagenic call (Test System: AMES SALMONELLA TYPHIMURIUM, Strain/Indicator: YG1019, Metabolic Activation: RAT LIVER S-9, AROCLOR, Method: PREINCUBATION): active; positive

SMILES: ClC(Cl)=C(c1ccc(Cl)cc1)c1ccc(Cl)cc1
- mutagenic call (End Point: IN VITRO CHROMOSOMAL ABERRATIONS, Test System: CHINESE HAMSTER OVARY CELLS, Metabolic Activation: NONE): inactive; negative
- mutagenic call (End Point: IN VITRO CHROMOSOMAL ABERRATIONS, Test System: CHINESE HAMSTER OVARY CELLS, Metabolic Activation: RAT, LIVER, S-9, AROCLOR 1254): inactive; negative
- mutagenic call [5]: inactive; negative
- mutagenic call [6]: inactive; negative
- mutagenic call [1]: inactive; negative
- mutagenic call [2]: inactive; negative
- mutagenic call [3]: inactive; negative
- mutagenic call [4]: inactive; negative
- mutagenic call (Test System: CHINESE HAMSTER V-79, Strain/Indicator: V-79/8-AZAGUANINE, Metabolic Activation: NONE, Method: STANDARD PLATE): active; positive
- mutagenic call (Test System: MOUSE LYMPHOMA, Strain/Indicator: L5178Y (TK+/TK-), Metabolic Activation: NONE, Method: SUSPENSION/PLATE): active; positive

SMILES: CC[C@H](C)[C@H]1O[C@]2(C=C[C@@H]1C)C[C@@H]1C[C@@H](C/C=C(\C)[C@@H](O[C@H]3C[C@H](OC)[C@@H](O[C@H]4C[C@H](OC)[C@@H](NC)[C@H](C)O4)[C@H](C)O3)[C@@H](C)/C=C/C=C3\CO[C@@H]4[C@H](O)C(C)=C[C@@H](C(=O)O1)[C@]34O)O2
- mutagenic call (End Point: Ames Salmonella typhimurium, Test System: TA97a, Metabolic Activation: None): inactive; negative
- mutagenic call (End Point: Ames Salmonella typhimurium, Test System: TA97a, Metabolic Activation: S-9): inactive; negative
- mutagenic call (End Point: Ames Salmonella typhimurium, Test System: TA98, Metabolic Activation: None): inactive; negative
- mutagenic call (End Point: Ames Salmonella typhimurium, Test System: TA98, Metabolic Activation: S-9): inactive; negative
- mutagenic call (End Point: Ames Salmonella typhimurium, Test System: TA100, Metabolic Activation: None): inactive; negative
- mutagenic call (End Point: Ames Salmonella typhimurium, Test System: TA100, Metabolic Activation: S-9): inactive; negative
- mutagenic call (End Point: Ames Salmonella typhimurium, Test System: TA1535, Metabolic Activation: None): inactive; negative
- mutagenic call (End Point: Ames Salmonella typhimurium, Test System: TA1535, Metabolic Activation: S-9): inactive; negative
- mutagenic call (End Point: E. coli, Test System: WP2, Metabolic Activation: None): inactive; negative
- mutagenic call (End Point: E. coli, Test System: WP2, Metabolic Activation: S-9): inactive; negative
- mutagenic call (End Point: E. coli, Test System: WP2uvrA pKM101, Metabolic Activation: None): inactive; negative
- mutagenic call (End Point: E. coli, Test System: WP2uvrA pKM101, Metabolic Activation: S-9): inactive; negative
- mutagenic call (End Point: E. coli, Test System: WP2uvrA, Metabolic Activation: None): inactive; negative
- mutagenic call (End Point: E. coli, Test System: WP2uvrA, Metabolic Activation: S-9): inactive; negative
- mutagenic call (End Point: Gene mutation, Test System: Chinese hamster V79 lung fibroblasts, Metabolic Activation: None): inactive; negative
- mutagenic call (End Point: Gene mutation, Test System: Chinese hamster V79 lung fibroblasts, Metabolic Activation: S-9): inactive; negative
- mutagenic call (End Point: In vitro chromosomal aberrations, Test System: Chinese hamster ovary (CHO-WBL) cells, Metabolic Activation: None): inactive; negative
- mutagenic call (End Point: In vitro chromosomal aberrations, Test System: Chinese hamster ovary (CHO-WBL) cells, Metabolic Activation: S-9): inactive; negative
- mutagenic call (End Point: In vivo chromosomal aberrations, Test System: Bone marrow cells, Species: Mouse, Route: Oral): inactive; negative

SMILES: COc1cc(OC)c2c(=O)c3c(O)ccc(OC)c3oc2c1
- mutagenic call (Test System: AMES SALMONELLA TYPHIMURIUM, Strain/Indicator: TA97, Metabolic Activation: NONE, Method: PREINCUBATION): inactive; negative
- mutagenic call (Test System: AMES SALMONELLA TYPHIMURIUM, Strain/Indicator: TA97, Metabolic Activation: RAT, LIVER, S-9, PHENOBARBITAL AND 5,6-BENZOFLAVONE, Method: PREINCUBATION): active; positive
- mutagenic call (Test System: AMES SALMONELLA TYPHIMURIUM, Strain/Indicator: TA98, Metabolic Activation: RAT, LIVER, S-9, PHENOBARBITAL AND 5,6-BENZOFLAVONE, Method: PREINCUBATION): inactive; negative
- mutagenic call (Test System: AMES SALMONELLA TYPHIMURIUM, Strain/Indicator: TA100, Metabolic Activation: RAT, LIVER, S-9, PHENOBARBITAL AND 5,6-BENZOFLAVONE, Method: PREINCUBATION): inactive; negative
- mutagenic call (Test System: AMES SALMONELLA TYPHIMURIUM, Strain/Indicator: TA2637, Metabolic Activation: RAT, LIVER, S-9, PHENOBARBITAL AND 5,6-BENZOFLAVONE, Method: PREINCUBATION): active; positive
